Test results taken from article PMC9014415, “Repositioning of a Diaminothiazole Series Confirmed to Target the Cyclin-Dependent Kinase CRK12 for Use in the Treatment of African Animal Trypanosomiasis” (Journal of Medicinal Chemistry, 2022).
pEC50: −log10 of the molar value.

Tests used:
[1] = Bovine liver microsome stability; assay type: in vitro ADME; settings: intrinsic clearance
Procedure: 2.2 Microsomal stability studies […]
(b) Bovine liver microsome stability. Test compounds (0.5 µM) were incubated with 0.5 mg/mL bovine liver microsomes (Xenotech LLC TM) in 50 mM potassium phosphate buffer, pH7.4 and the reaction initiated upon addition of excess NADPH (8 mg/mL in 50 mM potassium phosphate buffer, pH7.4).
Aliquots (50 µL) of the incubation mixture were taken at time zero, 3, 6, 9, 15 and 30 min then mixed with acetonitrile (100 µL) to stop the reaction. An internal standard was added to all samples, prior to centrifugation (10 min, 1,665 g, RT) to sediment precipitated protein. Reaction plates were then sealed prior to UPLCMSMS analysis using a Quattro Premier XE (Waters corporation, USA).
XLfit (IDBS, UK) was used to calculate the exponential decay and consequently the rate constant (k) from the ratio of peak area of test compound to internal standard at each timepoint. The rate of intrinsic clearance (CLi) of each test compound was then calculated using the following […]
CLi(mL/min/g liver) = k x V x microsomal protein yield
Where V (mL/mg protein) is the incubation volume/ mg protein added and microsomal protein yield is taken as 52.5 mg protein/ g of liver. Verapamil (0.5 µM) was used as a positive control to confirm acceptable assay performance. […]

T. congolense [2] = test: NMRI mouse efficacy model, T. congolense; assay type: in vivo, Trypanosoma congolense; settings: mice; 10 mg/kg SC once daily for 4 days
Procedure: (§1) 3. In vivo efficacy studies
(§2) The T. congolense (IL3000) and T. vivax (ILRAD V34) cell lines7, 8, both originating from Kenya, were used in the following in vivo mouse studies. For studies in cattle, either Trypanosoma congolense (savannah) KONT 2/133, 224) or T. vivax STIB 719 was used.
(§3) 3.1 Mouse efficacy studies for T. brucei brucei.
(§4) Mouse efficacy studies for T. brucei brucei were carried out as previously detailed.9 3.2 NMRI mouse efficacy studies for T. congolense and T. vivax.
(§5) Mouse models of infections were carried out using standardized protocols. Briefly, 1 mL samples of cryopreserved T. congolense, or T. vivax-infected blood harvested directly from an infected mouse, were diluted with Hanks Balanced Salt Solution plus 20 mM glucose (HBSS+G) to 5 x 10^4 trypomastigotes/mL (5 x 105 for T. vivax). Female mice (NMRI) were inoculated IP on day 0 with 0.2 mL/animal (equivalent to ~ 1 x 104 T. congolense or ~ 1 x 105 T. vivax per animal). The level of parasitaemia was inspected microscopically on day 3 using tail blood smears, counting 20 high powered fields (× 400 magnification). For untreated or treated animals whose tail smears exceeded 50 parasites/field, precise parasite levels were established using a Neubauer haemocytometer; mice with a parasite burden over 1 x 108 were promptly and humanely terminated (T. congolense only, from our experience the mice will not survive for a further 24 h). Alternatively, in the case of T. vivax-infected mice the immune system will bring the infection to a sub-lethal level (below limit of detection) […]
(§6) followed by cycles of high and low parasitaemia. Eventually mice infected with T. vivax succumb to the infection between 30 – 60 days post-infection.
(§7) Suppression of parasitaemia - mouse
(§8) On day 3 post-infection, animals were randomly allocated to groups, with 3 mice/group. Infected animals were dosed with one of the following: diaminazene diaceturate IP. – 40 mg/kg once only as a control (early-stage trypanocide used to clear the parasites in the systemic circulation and in tissues other than CNS), compound 1 (SC) at 3, 10, 30 and 50 mg free base/kg twice and once daily for 4 d or a single dose, or compound 2 (SC) at 3 and 10 mg free base /kg once daily for 4 d, once daily for 2 d or a single dose, one group of 3 mice acted as an untreated control group. The dose solutions were prepared daily, using 5% DMSO: 40% PEG400: 55% MilliQ H2O for test compounds and 10% DMSO: 90% peanut oil for standard drugs. Alternatively, compound 2 was delivered for 48 h via SC implanted ALZET osmotic pumps (6, 12, 25 and 50 mg free base/mL, vehicle: 50% DMSO […]
(§9) and 50% deionized water).
(§10) Response to treatment was determined by monitoring parasitaemia twice a week until day 21.
(§11) After day 21, the mice were checked once a week until 63 d post-treatment. Mice surviving to the end of the experiment, and with blood smears clear of parasites, were considered cured. […]
(§12) The parasites were obtained from a donor calf. This isolate is resistant to diminazene (20 mg/kg) and isometamidium (1 mg/kg) in cattle, and diminazene (7 mg/kg) and isometamidium (>1 mg/kg) in mice. Calves were parasitaemic by study day 6. Calves (n = 5) were treated with compound 1 (5 mg/kg, SC, twice 12 h apart) on study

T. vivax [3] = test: NMRI mouse efficacy model, T. vivax; assay type: in vivo, Trypanosoma vivax; settings: mice; 10 mg/kg SC once daily for 4 days
Procedure: as §1, §2, §3, §4, §5, §6, §7, §8, §9, §10, §11, §12

[4] = Aqueous kinetic solubility by laser nephelometry; assay type: physicochemical; settings: MilliQ water with 2.5% DMSO, read-out: Sol (kinetic solubility); for solubility kinetic: range 250-12 µM
Procedure: 2. Drug metabolism and pharmacokinetics
The aqueous solubility of test compounds was measured using laser nephelometry. Compounds were subject to serial dilution from 10 mM to 0.5 mM in DMSO. Aliquot were then mixed with MilliQ water to obtain an aqueous dilution plate with a final concentration range of 250 – 12 µM. The final DMSO concentration in these plates was 2.5%. Triplicate aliquots were transferred to a flat-bottomed polystyrene plate which was immediately read on a NEPHELOstar nephelometer (BMG Lab Technologies). The laser scatter caused by insoluble particulates (relative nephelometry units, RNU) was plotted against compound concentration using a segmental regression fit, with the point of inflection being quoted as the compound’s aqueous solubility (µM).
Solubility of compound 1 was measured by a different method. Here, compound 1 was dissolved in DMSO to give a 10 mM solution and solubility test samples prepared by adding a volume (5 µL) of this stock solution to phosphate buffered saline, pH 7.4 (195 µL, Sigma-Aldrich). This

L6 cells = test: Cytotoxicity assay, rat skeletal myoblasts (L6); assay type: cell-based
Procedure: 1.4 Cytotoxicity assays – Rat skeletal myoblasts (L6)
The cytotoxicity of test compounds was evaluated using a rat skeletal myoblast (L6) cell line, as previously described3, but with minor modifications. Cells were grown in RPMI media supplemented with 10% (v/v) fetal calf serum. L6 cells at a seeding density of 2 x 10^4 cells/mL were incubated in microtiter plates overnight at 37 °C and 5 % CO2 until adherent. The following day, test compounds were added to the plates (3-fold serial dilutions), prior to incubation for 69 h. Following incubation, 10 µL of Resazurin (12.5 mg in 100 mL phosphate buffered saline, Aldrich) was added to each well and the plates were incubated for a further 3 h. The plates were read using a SpectraMax (Gemini XS) fluorescence reader at an excitation wavelength of 536 nm and an emission wavelength of 588 nm. EC50 values were determined using SOFTmax Pro 5.2 analysis software. All experiments were conducted as technical replicates, with at least three biological replicates. […]

T. vivax [5] = test: Ex vivo drug sensitivity assay, T. vivax (STIB 719/ILRAD 560); assay type: cell-based; settings: Trypanosoma vivax
Procedure: Test compounds were resuspended to a final concentration of 10 mg/mL in DMSO. […]
1.3 Ex vivo drug sensitivity assays - Trypanosoma vivax
Since T. vivax cannot be cultured axenically, BSF trypanosomes were harvested from an infected mouse with high parasitemia via cardiac puncture and used directly in ex vivo assays. EC50 values were determined against T, vivax (STIB 719/ ILRAD 560) as previously described3, with minor modifications. Briefly, cell densities were determined using a Neubauer chamber and then diluted to a seeding density of 4 x 105 trypanosomes / mL. BSF trypanosomes were cultured in HMI-9 (IMDM) media containing 20% (v/v) bovine serum. Assay plates were incubated at 37 °C with 5 % CO2, for a total of 45 h prior to addition 10 µL of Resazurin (12.5 mg in 100 mL phosphate buffered saline, Aldrich) into each well, followed by a further 3 h incubation. Absorbance was read using a SpectraMax (Gemini XS) fluorescence reader at an excitation wavelength of 536 nm and an emission wavelength of 588 nm. EC50 values were determined using SOFTmax Pro 5.2 analysis […]
software. […]

T. congolense [6] = test: In vitro drug sensitivity assay, T. congolense (IL3000); assay type: cell-based; settings: Trypanosoma congolense; IL3000 strain
Procedure: 1.2 In vitro drug sensitivity assays - Trypanosoma congolense
EC50 values for test compounds against T. congolense (IL3000 strain) were conducted as previously described3 with minor modifications.4 Briefly, trypanosome cell densities were determined using a CASY cell counter (Schärfe) and diluted to a seeding density of 2 x 105 trypanosomes/mL. BSF trypanosomes were grown in HMI-9 (IMDM) media supplemented with 20% (v/v) bovine serum.1 Test compounds were resuspended to a final concentration of 10 mg/mL in DMSO. Assays plates were incubated at 34 °C with 5 % CO2, for a total of 69 h, prior to addition of 10 µL of Resazurin (12.5 mg in 100 mL phosphate buffered saline, Aldrich) into each well, followed by a further 3 h incubation. Absorbance was read using a SpectraMax (Gemini XS) fluorescence reader at an excitation wavelength of 536 nm and an emission wavelength of 588 nm. EC50 values were determined using SOFTmax Pro 5.2 analysis software. All experiments were conducted with technical duplicates, and at least three biological replicates. […]

Row | SMILES | Bovine Microsome Cli (BLM: bovine microsomal clearance) [1] [mL/min/g] | solubility kinetic [4] [µM] | solubility kinetic at 24 h ([4]; pH 7.4, range 250-12 µM) [µM] | pEC50 (T. vivax [5]) | pEC50 (T. congolense [6]) | Efficacy at 10 mg/kg SC for 4 days, T. congo (T. congolense [2]) | Efficacy at 10 mg/kg SC for 4 days, T. vivax (T. vivax [3]) | pEC50 (L6 cells)
1 | CC(C)CS(=O)(=O)N[C@H]1CC[C@H](Nc2nc(N)c(C(=O)c3c(F)cc(CN4CCN(C)CC4)cc3F)s2)CC1.Cl [Compound 3, N-((trans)-4-((4-Amino-5-(2,6-difluoro-4-((4-methylpiperazin-1-yl)methyl)benzoyl)thiazol-2-yl)amino)cyclohexyl)-2-methylpropane-1-sulfonamide Hydrochloride] | <0.5 | > 250 |  |  |  | Partial cure (1/3) | No cure (0/3) | 
2 | CC(C)CS(=O)(=O)N[C@H]1CC[C@H](Nc2nc(N)c(C(=O)c3c(F)cc(CN4CCOCC4)cc3F)s2)CC1.Cl [Compound 4, N-((trans)-4-((4-Amino-5-(2,6-difluoro-4-((4-morpholinomethyl)benzoyl)thiazol-2-yl)amino)cyclohexyl))-2-methylpropane-1-sulfonamide Hydrochloride] | 1 |  |  |  |  | No cure (0/3) | No cure (0/3) | 
3 | CC(C)CS(=O)(=O)N[C@H]1CC[C@H](Nc2nc(N)c(C(=O)c3c(F)cc(CN4CCCC4)cc3F)s2)CC1.Cl [Compound 5, N-((trans)-4-((-4-Amino-5-(2,6-difluoro-4-(pyrrolidin-1-ylmethyl)benzoyl)thiazol-2-yl)amino)cyclohexyl)-2-methyl-propane-1-sulfonamide Hydrochloride] | <0.5 |  | 220 |  |  | Partial cure (1/3) | Full cure (3/3) | 
4 | CC(C)CS(=O)(=O)N[C@H]1CC[C@H](Nc2nc(N)c(C(=O)c3c(F)cc(CN4CCC4)cc3F)s2)CC1.Cl [Compound 6, N-(((trans)-4-((4-Amino-5-(4-azetidin-1-ylmethyl)-2,6-difluorobenzoyl)thiazol-2-yl)amino)cyclohexyl)-2-methylpropane-1-sulfonamide Hydrochloride] | 1.3 | > 250 |  | 8.16 | 8.60 |  |  | 5.28

Now from value to molecule, other results behind:

Row | Bovine Microsome Cli (BLM: bovine microsomal clearance) [1] [mL/min/g] | solubility kinetic [4] [µM] | solubility kinetic at 24 h ([4]; pH 7.4, range 250-12 µM) [µM] | pEC50 (T. vivax [5]) | pEC50 (T. congolense [6]) | SMILES | Efficacy at 10 mg/kg SC for 4 days, T. congo (T. congolense [2]) | Efficacy at 10 mg/kg SC for 4 days, T. vivax (T. vivax [3]) | pEC50 (L6 cells)
5 | 0.8 | > 250 |  | 9.00 | 7.80 | CC(C)CS(=O)(=O)N[C@H]1CC[C@H](Nc2nc(N)c(C(=O)c3c(F)cc(CCN(C)C)cc3F)s2)CC1.Cl [Compound 7, N-(((trans)-4-((4-Amino-5-(4-(2-dimethylamino)ethyl)-2,6-difluorobenzoyl)thiazol-2-yl)amino)cyclohexyl)-2-methylpropane-1-sulfonamide Hydrochloride] |  |  | 4.74
6 | <0.5 | > 250 |  | 9.30 | 8.08 | CC(C)CS(=O)(=O)N[C@H]1CC[C@H](Nc2nc(N)c(C(=O)c3c(F)cc(CN)cc3F)s2)CC1.Cl [Compound 9, N-((trans)-4-((4-Amino-5-(4-(aminomethyl)-2,6-difluorobenzoyl)thiazol-2-yl)amino)cyclohexyl)-2-methylpropane-1-sulfonamide Hydrochloride] |  |  | 5.23
7 | 7.1 | > 250 |  | 10.30 | 9.23 | CC(C)CS(=O)(=O)N[C@H]1CC[C@H](Nc2nc(N)c(C(=O)c3c(Cl)cc(CN(C)C)cc3Cl)s2)CC1.Cl [Compound 11, N-((trans)-4-((4-Amino-5-(4-(dimethylaminomethyl)-2,6-dichlorobenzoyl)thiazol-2-yl)amino)cyclohexyl)-2-methylpropane-1-sulfonamide Hydrochloride] |  |  | 5.37
